Measured values published in patent publication US20250041280A1, “USE OF HETEROCYCLIC COMPOUNDS IN ALLEVIATING ADVERSE REACTIONS CAUSED BY CHEMOTHERAPEUTIC DRUGS” (TSINGHUA UNIVERSITY, priority 2021, published 2025).

How the values were obtained:
[1] = test system: human colon organoids; test: Protection of ISX on human colon organoids, bright field and live cells/dead cells double staining; conditions: 5-FU 20 uM alone
Text: Calcein-AM/PI Live Cells/Dead Cells Double Staining Assay
Calcein-AM can permeate the cell membrane, and the esterase in living cells can remove its AM group to produce calcein and emit fluorescence. PI (propidium iodide) cannot pass through the intact cell membrane, and only after the cell membrane is damaged and the permeability changes, PI can enter the cell to combine with DNA and emit fluorescence. Therefore, Calcein-AM/PI can be a label for distinguishing the live or dead cells.
Colon tissues were isolated from normal human tissue to perform organoid culture, after the culture was stable, performing subculture to continue the culture for 3-5 days. The culture was dividing into 4 groups: a control group of adding DMSO alone (DMSO group); a group of adding chemotherapy drug 5-fluorouracil (5-FU, 20 uM) alone (5-FU group); a group of adding ISX (10 uM) alone (ISX group); and a group of adding 5-FU (50 uM) and ISX (25 uM) simultaneously (5-FU+ISX group).
The signal generated by PI in the fluorescence image represents dead cells, and the signal generated by Calcein-AM represents living cells.

[2] = test system: small intestinal organoids in mice; test: Protection of ISX on injury of mouse small intestinal organoids caused by 5-FU, bright field and live cells/dead cells double staining; assay type: cell-based; conditions: then 4 days of culture
Text: (§1) 1. Isolation of Crypts and Culture of Organoids

[3] = test system: small intestinal organoids in mice; test: Protection of ISX on injury of mouse small intestinal organoids caused by 5-FU, immunofluorescence staining (cleaved caspase-3); conditions: 5-FU 50 uM alone, 4 hours of treatment; FIG. 1
Text: as §1
(§2) 3. Immunofluorescence of Organoids

[4] = test system: intestinal tract of mice; test: Protective effect of ISX on the intestinal tract of mice, TUNEL assay; assay type: in vivo; conditions: etoposide 20 mg/kg intraperitoneally, ISX 20 mg/kg orally
Procedure: 6-8 week-old wild-type B6 mice were randomly divided into two groups. One group was intraperitoneally injected with chemotherapeutic drug etoposide (20 mg/kg), and then orally administered a cosolvent (5% DMSO+0.5% Tween 80+0.5% CMC-Na) (5 mL/kg); another group was intraperitoneally injected with chemotherapeutic drug etoposide (20 mg/kg), and then orally administered ISX dissolved in a cosolvent (20 mg/kg). The mice were sacrificed 3 hours later, and the intestinal tissues were fixed, followed by TUNEL staining assay.

[5] = test system: small intestinal organoids in mice; test: Protection of ISX on injury of mouse small intestinal organoids caused by etoposide, bright field and live cells/dead cells double staining; assay type: cell-based; conditions: then 4 days of culture
Text: as §1

[6] = test system: small intestinal organoids in mice; test: Protection of ISX on injury of mouse small intestinal organoids caused by etoposide, immunofluorescence staining; assay type: cell-based; conditions: etoposide 50 uM + ISX 25 uM, 4 hours of treatment; FIG. 4
Text: as §1, §2

[7] = test system: small intestinal organoids in mice; test: Protection of ISX on injury of mouse small intestinal organoids caused by etoposide, Western blotting; assay type: cell-based; conditions: etoposide 50 uM + ISX 25 uM, 4 hours of treatment; FIG. 5
Procedure: as §1
5. Western Blotting Assay
After 4 hours of treatment, 4 groups of samples were collected for Western blotting assay.

[8] = test system: small intestinal organoids in mice; test: Comparative experiment on the protective effects of PD332991, CHIR99021 and ISX on intestinal organoids; conditions: then 4 days of culture, FIG. 13
Text: as §1
In this example, PD0332991 and CHIR99021 were used as reference compounds to evaluate the protective effect of the compounds of the present application on intestinal organoids.
After treatment, all compound treatments were terminated, and the organoids were washed 3 times with PBS, then culturing in fresh medium.

[9] = etoposide 50 uM + ISX 25 uM, 8 hours of treatment, FIG. 6
[10] = 5-FU 50 uM + ISX 25 uM, 8 hours of treatment, FIG. 2

O=c1[nH]cc(F)c(=O)[nH]1 [5-FU, 5-fluorouracil]
number of crypt structures, 5-FU group vs DMSO group ([1]; 48 hours of treatment, p<0.01, FIGS. 8-9): significantly reduced | dead cells (PI), 5-FU group compared with DMSO group ([1]; culture until day 5, FIG. 10): increased significantly | biomass (bright field), 5-FU group compared with DMSO group ([2]; 5-FU 50 uM alone, 8 hours of treatment, FIG. 2): significantly reduced | dead cells (cleaved caspase-3 signal), 5-FU group vs DMSO group [3]: significantly higher

O=C(NC1CC1)c1cc(-c2cccs2)on1 [ISX]
number of TUNEL signals in each crypt, ISX group vs cosolvent group ([4]; 3 hours, p<0.01, FIG. 12): significant difference | TUNEL signal, orally administered ISX group vs cosolvent group ([4]; sacrificed 3 hours later, FIG. 11): significantly lower | biomass (bright field), Eto+ISX group compared with the Eto group [5, 9]: significantly increased | number of living cells (Calcein-AM), Eto+ISX group vs Eto group [5, 9]: significantly more | number of surviving crypt structures in each organoid, Eto+ISX group vs Eto group ([5]; etoposide 50 uM + ISX 25 uM, 8 hours, p<0.01, FIG. 7): significant difference | biomass (bright field), 5-FU+ISX group compared with the 5-FU group [2, 10]: significantly increased | number of living cells (Calcein-AM), 5-FU+ISX group vs 5-FU group [2, 10]: significantly more | number of surviving crypt structures in each organoid, 5-FU+ISX group vs 5-FU group ([2]; 5-FU 50 uM + ISX 25 uM, 8 hours, p<0.01, FIG. 3): significant difference | cell death (cleaved caspase-3 signal) caused by etoposide [6]: significantly reduce the cell death | cell death caused by etoposide (Western blotting) [7]: significantly reduce the cell death

COc1cc([C@@H]2c3cc4c(cc3[C@@H](O[C@@H]3O[C@@H]5CO[C@@H](C)O[C@H]5[C@H](O)[C@H]3O)[C@H]3COC(=O)[C@H]23)OCO4)cc(OC)c1O [Eto, etoposide, reference compound]
biomass (bright field), Eto group compared with DMSO group ([5]; etoposide 50 uM alone, 8 hours of treatment, FIG. 6): significantly reduced

CC(=O)c1c(C)c2cnc(Nc3ccc(N4CCNCC4)cn3)nc2n(C2CCCC2)c1=O [PD332991]
protection of small intestinal organoids against 5-FU (live cells/dead cells double staining) ([8]; 5-FU 25 uM + PD0332991 100 nM): cannot protect small intestinal organoids

Cc1c[nH]c(-c2cnc(NCCNc3ccc(C#N)cn3)nc2-c2ccc(Cl)cc2Cl)n1 [CHIR99021]
protection of small intestinal organoids against 5-FU (live cells/dead cells double staining) ([8]; 5-FU 25 uM + CHIR99021 10 uM): cannot protect small intestinal organoids
